Results as given in the supplement of paper PMC11451515.

Tested on: SEM cells
Experiment: cell viability relative to DMSO control; higher = less cytotoxic
Settings: 48 h
In short: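 NOMO1, SEM and P12-Ichikawa leukemia cells spent at least four passages adapting to each medium before use. They were seeded at 500 cells/well (NOMO1, SEM) or 1000 cells/well (P12-Ichikawa) in 5 μl in 1536-well plates and pin-dosed with library compounds in DMSO at 11 threefold steps from 47 μM down to 0.79 nM. After 48 h at 37°C, CellTiter-Glo One luminescence was read. Viability is reported as a percentage of the DMSO wells on each plate, with cell-free wells as background.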

[1] = RPMI 5 mM glucose + 10% FBS, 0.000781 µM
[2] = RPMI 5 mM glucose + 10% FBS, 0.00234 µM
[3] = RPMI 5 mM glucose + 10% FBS, 0.00702 µM
[4] = RPMI 5 mM glucose + 10% FBS, 0.0211 µM
[5] = RPMI 5 mM glucose + 10% FBS, 0.0632 µM
[6] = RPMI 5 mM glucose + 10% FBS, 0.19 µM
[7] = RPMI 5 mM glucose + 10% FBS, 0.569 µM
[8] = RPMI 5 mM glucose + 10% FBS, 1.71 µM
[9] = RPMI 5 mM glucose + 10% FBS, 5.12 µM
[10] = RPMI 5 mM glucose + 10% FBS, 15.4 µM
[11] = RPMI 5 mM glucose + 10% FBS, 46.1 µM
[12] = RPMI 5 mM glucose + 10% dialyzed FBS, 0.000781 µM
[13] = RPMI 5 mM glucose + 10% dialyzed FBS, 0.00234 µM
[14] = RPMI 5 mM glucose + 10% dialyzed FBS, 0.00702 µM
[15] = RPMI 5 mM glucose + 10% dialyzed FBS, 0.0211 µM
[16] = RPMI 5 mM glucose + 10% dialyzed FBS, 0.0632 µM
[17] = RPMI 5 mM glucose + 10% dialyzed FBS, 0.19 µM
[18] = RPMI 5 mM glucose + 10% dialyzed FBS, 0.569 µM
[19] = RPMI 5 mM glucose + 10% dialyzed FBS, 1.71 µM
[20] = RPMI 5 mM glucose + 10% dialyzed FBS, 5.12 µM
[21] = RPMI 5 mM glucose + 10% dialyzed FBS, 15.4 µM
[22] = RPMI 5 mM glucose + 10% dialyzed FBS, 46.1 µM
[23] = HPLM + 10% dialyzed FBS, 0.000781 µM
[24] = HPLM + 10% dialyzed FBS, 0.00234 µM
[25] = HPLM + 10% dialyzed FBS, 0.00702 µM
[26] = HPLM + 10% dialyzed FBS, 0.0211 µM
[27] = HPLM + 10% dialyzed FBS, 0.0632 µM
[28] = HPLM + 10% dialyzed FBS, 0.19 µM
[29] = HPLM + 10% dialyzed FBS, 0.569 µM
[30] = HPLM + 10% dialyzed FBS, 1.71 µM
[31] = HPLM + 10% dialyzed FBS, 5.12 µM
[32] = HPLM + 10% dialyzed FBS, 15.4 µM
[33] = HPLM + 10% dialyzed FBS, 46.1 µM

| Compound | cell viability [1] [%] | cell viability [2] [%] | cell viability [3] [%] | cell viability [4] [%] | cell viability [5] [%] | cell viability [6] [%] | cell viability [7] [%] | cell viability [8] [%] | cell viability [9] [%] | cell viability [10] [%] | cell viability [11] [%] | cell viability [12] [%] | cell viability [13] [%] | cell viability [14] [%] | cell viability [15] [%] | cell viability [16] [%] | cell viability [17] [%] | cell viability [18] [%] | cell viability [19] [%] | cell viability [20] [%] | cell viability [21] [%] | cell viability [22] [%] | cell viability [23] [%] | cell viability [24] [%] | cell viability [25] [%] | cell viability [26] [%] | cell viability [27] [%] | cell viability [28] [%] | cell viability [29] [%] | cell viability [30] [%] | cell viability [31] [%] | cell viability [32] [%] | cell viability [33] [%] |
| --- | --- | --- | --- | --- | --- | --- | --- | --- | --- | --- | --- | --- | --- | --- | --- | --- | --- | --- | --- | --- | --- | --- | --- | --- | --- | --- | --- | --- | --- | --- | --- | --- | --- |
| CN1[C@@H]2CC(O)C[C@H]1[C@@H]1O[C@@H]12 (stereo partly drawn) | 124 | 123 | 114 | 19.5 | 134 | 115 | 109 | 130 | 115 | 109 | 7.57 | 101 | 126 | 116 | 21.8 | 103 | 111 | 103 | 106 | 94.3 | 81.4 | 5.54 | – | – | – | – | – | – | – | – | – | – | – |
| COc1cc(N2CCC(N3CCN(C)CC3)CC2)ccc1Nc1ncnc(Nc2ccccc2[S+](=O)([O-])C(C)C)n1 | 71.3 | 72.6 | 90.7 | 93.8 | 59.6 | 123 | 109 | 81 | 59.4 | 22.5 | 7.39 | 87.4 | 90.2 | 82.2 | 85.7 | 69.8 | 132 | 127 | 109 | 72.7 | 26.4 | 12.9 | 69.6 | 81.5 | 85.8 | 99.3 | 67.4 | 106 | 104 | 88.4 | 67.6 | 25.2 | 11.9 |
| CN(C)c1nc(N(C)C)nc(N(C)C)n1 | 107 | 111 | 102 | 105 | 107 | 101 | 102 | 100 | 90.1 | 104 | 93.4 | 102 | 115 | 102 | 104 | 108 | 110 | 109 | 94.3 | 100 | 98.6 | 93.1 | 92.3 | 97.3 | 110 | 95.1 | 103 | 104 | 106 | 92.5 | 97.6 | 92.2 | 84.9 |
| CN1C(=O)COc2c(C(=O)NC3CN4CCC3CC4)cc(Cl)cc21 (stereo not drawn) | 91.7 | 93.7 | 94 | 96.6 | 104 | 95.7 | 109 | 90.6 | 88.5 | 95.5 | 84.9 | 116 | 120 | 125 | 122 | 118 | 126 | 107 | 109 | 97.6 | 131 | 124 | 114 | 112 | 119 | 100 | 116 | 101 | 118 | 101 | 112 | 105 | 101 |
| C[C@H]1[C@@H](CC(C[C@H]2O[C@@H]3O[C@]4(C)CC[C@H]5[C@H](C)CC[C@@H]([C@H]2C)[C@@]35OO4)C[S+](=O)([O-])c2ccc(COC(=O)N(C)C)cc2)O[C@@H]2O[C@]3(C)CC[C@H]4[C@H](C)CC[C@@H]1[C@@]24OO3 | 101 | 103 | 91.3 | 115 | 106 | 108 | 23.9 | 6.39 | 7.58 | 7.01 | 5.47 | 109 | 112 | 94.1 | 105 | 107 | 104 | 27.5 | 6.28 | 6.52 | 6.47 | 4.61 | 96.1 | 91.3 | 97.2 | 99.8 | 102 | 89.3 | 72.9 | 5.9 | 7.11 | 6.96 | 4.59 |
| N=C(N)c1ccc(OCCCCCOc2ccc(C(=N)N)cc2)cc1 | – | – | – | – | – | – | – | – | – | – | – | 64.9 | 111 | 146 | 138 | 121 | 118 | 105 | 103 | 113 | 120 | 57.8 | 72.7 | 115 | 112 | 125 | 123 | 127 | 118 | 122 | 106 | 101 | 46.4 |
| COC1=CC=C(C=C1)C/2=C/OC3=CC(=CC=C3C2=O)O | 117 | 124 | 136 | 109 | 133 | 117 | 98.9 | 106 | 143 | 122 | 145 | 124 | 139 | 112 | 110 | 115 | 120 | 122 | 121 | 133 | 131 | 142 | 116 | 113 | 113 | 114 | 123 | 109 | 114 | 122 | 130 | 115 | 136 |
| CCCCCCCCCCCCCCCC(=O)OC[C@@H](NC(=O)C(Cl)Cl)[C@H](O)c1ccc([N+](=O)[O-])cc1 | 120 | 117 | 132 | 122 | 136 | 138 | 132 | 124 | 128 | 133 | 129 | – | – | – | – | – | – | – | – | – | – | – | 90.3 | 113 | 114 | 116 | 121 | 121 | 118 | 123 | 131 | 116 | 119 |
| CCCCc1oc2ccc(NS(C)(=O)=O)cc2c1C(=O)c1ccc(OCCCN(CCCC)CCCC)cc1 | 88.9 | 87.5 | 98.2 | 109 | 95.6 | 92.6 | 101 | 108 | 96.3 | 94.1 | 14.9 | 94.8 | 94.1 | 98.4 | 108 | 107 | 99.3 | 100 | 109 | 97 | 94.7 | 6.45 | 62.8 | 66 | 80.9 | 87.6 | 92.6 | 86.6 | 101 | 98.7 | 70.2 | 78.6 | 8.35 |
| OC1=C(C=CC=C1)C2=CC=C(C=C2)C3=CSC4=C3C(=C(/C#N)C(=O)N4)/O | 111 | 109 | 118 | 112 | 105 | 90.5 | 98.6 | 112 | 87.4 | 96.7 | 90.9 | 113 | 117 | 124 | 133 | 121 | 126 | 115 | 117 | 104 | 110 | 100 | 114 | 123 | 131 | 129 | 120 | 132 | 124 | 113 | 96.6 | 113 | 103 |
| COc1cc2ncnc(Nc3ccc(F)c(Cl)c3)c2cc1OCCCN1CCOCC1 | – | – | – | – | – | – | – | – | – | – | – | 105 | 119 | 125 | 102 | 125 | 118 | 123 | 108 | 78.1 | 82 | 31.9 | 118 | 113 | 123 | 103 | 123 | 112 | 107 | 102 | 86.8 | 48.5 | 10.9 |
| C[C@@]12OC(=O)[C@@]1(NC(=O)[C@@H]2CCCl)[C@@H](O)[C@H]\3CCC\C=C3 | 87.5 | 90.2 | 93.7 | 96.8 | 31.8 | 8.22 | 7.13 | 6.4 | 4.56 | 2.53 | 2.01 | 80.9 | 92 | 91.8 | 84 | 33.3 | 9.46 | 7.84 | 7.08 | 5.11 | 3.72 | 2.53 | 78.2 | 92.7 | 93.6 | 100 | 34.2 | 10 | 6.88 | 6.65 | 4.57 | 3.3 | 2.16 |
| Cc1cnc(Nc2ccc(OCCN3CCCC3)cc2)nc1Nc1cccc([S+](=O)([O-])NC(C)(C)C)c1 | 88.9 | 95.8 | 95.4 | 111 | 104 | 106 | 108 | 88.5 | 89.9 | 90.1 | 77.2 | 83.5 | 97.3 | 98.8 | 106 | 98.2 | 99.2 | 106 | 98.1 | 82.4 | 84.5 | 71.9 | 83.6 | 93.2 | 93.9 | 88.2 | 96.3 | 89.5 | 96.7 | 102 | 96.1 | 68.2 | 67.2 |
| O=C(c1ccc(F)cc1)C1CCN(CCn2c(=O)[nH]c3ccccc3c2=O)CC1 | 118 | 121 | 126 | 126 | 106 | 120 | 120 | 119 | 119 | 125 | 116 | – | – | – | – | – | – | – | – | – | – | – | 97.6 | 103 | 112 | 101 | 101 | 98.5 | 119 | 109 | 104 | 95.7 | 93 |
| CO[C@@H]1[C@H](N(C)C(=O)c2ccccc2)C[C@H]2O[C@]1(C)n1c3ccccc3c3c4c(c5c6ccccc6n2c5c31)C(=O)NC4 | 87 | 111 | 110 | 106 | 105 | 92.4 | 64.2 | 30.3 | 10.9 | 6.27 | 4.63 | 101 | 108 | 109 | 97 | 107 | 85.5 | 63 | 34.7 | 11.8 | 7.3 | 4.43 | 103 | 104 | 119 | 97 | 114 | 105 | 55.5 | 37.6 | 20.7 | 12.7 | 7 |
| Cn1c(=O)c2c(ncn2CC(O)CO)n(C)c1=O (stereo not drawn) | 106 | 96.7 | 120 | 101 | 120 | 123 | 113 | 111 | 111 | 111 | 122 | 93.1 | 120 | 99.3 | 110 | 116 | 113 | 121 | 133 | 135 | 125 | 137 | 87.4 | 101 | 116 | 92.6 | 104 | 109 | 113 | 111 | 96 | 108 | 124 |
